Measured values published in US12092575B2, “Measuring method of cell migration using the rate of cell invasion” (MBD Co., Ltd., priority 2021, dated 2024).

Tests used:
#1 HNSCC PDC = experiment: Pillar-based spheroid invasion assay of #1 HNSCC PDC; type: cell-based, human; conditions: #1 HNSCC PDC spheroids, 80 μM of drugs, three days
A549 cell line = experiment: Pillar-based spheroid invasion assay of A549 cell line
Method: Before using the pillar array, the pillar array and cell-encapsulation apparatus were immersed in 70% ethanol for 30 min for sterilization followed by complete drying at room temperature.

A549 cells = experiment: Transwell invasion assay (Matrigel-coated membrane); type: cell-based; conditions: 1 μM docetaxel, 24 h, Matrigel-coated membrane (FIG. 6)
Method: In the present invention, transwell for conventional invasion assay was used. The membrane of the transwell was coated with 100 μl Matrigel (Corning, NY, USA) basement membrane matrix diluted 9-fold. A549 cells (2×10^4 cells/well) were seeded in the insert of the transwell with RPMI media without FBS. 500 μl RPMI media with FBS was filled in the wells to serve as a chemoattractant. After 24 h of cell incubation, migrated cells on the insert were fixed with 95% ethyl alcohol and then stained with 0.5% crystal violet.
Based on the fluorescence intensity, spheroid was identified, and invasive cells were calculated by subtracting the spheroid area from the total cell area. A549 cells formed a spheroid two days after cell aggregation and incubation. Cells surrounding spheroid migrated for an additional three days of culture. To check the invasiveness of A549 cells, the present inventors conducted invasion assay using Transwell (24-well transwell, Cat. No. 3422, Corning, USA) in no drug and 1 μM Docetaxel.

SMILES	cell migration/invasion (spheroid morphology) (#1 HNSCC PDC)	cell invasion (A549 cell line; A549 spheroids on pillar)	size of a single big spheroid (spheroid area) (A549 cell line; A549 spheroids on pillar (FIG. 8))	total cell area, which means cell viability (A549 cell line; A549 spheroids on pillar, as a function of docetaxel concentration (FIG. 7))	invasion ratio (A549 cell line; A549 spheroids on pillar, docetaxel treated, control 52% (FIG. 9))	invasion of A549 in the Transwell (A549 cells)
N.N.[Cl][Pt][Cl] [cisplatin, Cisplatin]	effectively inhibited cell migration/invasion					
CC(=O)O[C@@]12CO[C@@H]1C[C@H](O)[C@@]1(C)C(=O)[C@H](O)C3=C(C)[C@@H](OC(=O)[C@H](O)[C@@H](NC(=O)OC(C)(C)C)c4ccccc4)C[C@@](O)([C@@H](OC(=O)c4ccccc4)[C@H]21)C3(C)C [docetaxel, Docetaxel]	effectively inhibited cell migration/invasion	inhibited cell invasion	reduced the size of a single big spheroid	decreased depending on docetaxel concentration	lower than 35%	inhibited the invasion
CN[C@@H]1C[C@H]2O[C@@](C)([C@@H]1OC)n1c3ccccc3c3c4c(c5c6ccccc6n2c5c31)C(=O)NC4 [staurosporine, Staurosporine]	effectively inhibited cell migration/invasion					
